According to PMC12104086, “Identification of a multiple DAMP scavenger mimicking the DAMP-binding site of TLR4 to ameliorate lethal sepsis” (Frontiers in Immunology, 2025):

Columns and labels:
RAW264.7 cells = assay: MTS cytotoxicity assay; type: cell-based, mouse; conditions: 20 h, n=3-4, versus PBS
Procedure: (§1) Supplemental Figure 6: Toxicity Assay of OP18
(§2) Note: (A) RAW264.7 cells were treated with OP18 for 20 h and MTS assay was performed using a CellTiter 96® AQueous Non-Radioactive Cell Proliferation Assay kit (Promega, Madison, Wisconsin) according to the manufacturer’s instructions. (B) Mouse peritoneal macrophages were treated with OP18 for 20 h and CyQUANT™ LDH Cytotoxicity Assay (Thermo Fisher Scientific, Waltham, MA) was performed according to the manufacturer’s instruction s. Data are expressed as mean ± SEM (n=3-4 samples/group) and compared by one -way ANOVA and a Tukey’s multiple comparison test. ns: not significant, *p < 0.05 versus PBS (C, D) Sham mice were treated with OP18 for 20h and blood were collected. (C) IL-6 and (D) TNFα were […]
(§3) Data are expressed as mean ± SEM and compared by unpaired two -tailed Student’s t-test. not significant (ns) vs sham.
(§4) (1 picture or pasted object on this page, not shown here)

[1] = test system: mouse peritoneal macrophages; assay: LDH cytotoxicity assay; type: cell-based; conditions: 20 h, n=3-4, versus PBS
Procedure: as §1, §2, §3, §4

C57BL/6 mice (sham) = assay: Cytokine production in sham mice treated with OP18; type: in vivo, mouse; conditions: OP18-treated sham versus sham, 20 h, blood, ELISA
Procedure: as §1, §2, §3, §4

[2] = test system: C57BL/6 mice, cecal ligation and puncture (CLP); assay: CLP lethal sepsis model, 20 h: plasma DAMPs, serum cytokines and organ injury markers; type: in vivo, mouse; conditions: 80 nmol/kg i.p. once at abdominal closure, 20 h after CLP; n = 7–9; scrambled: vs sham; OP18: vs scrambled peptide; p < 0.05
Procedure: Polymicrobial sepsis was induced in mice by cecal ligation and puncture (CLP) ([7], [23]). Mice were anesthetized with isoflurane, and a midline abdominal incision was performed. The cecum was ligated with a 4–0 silk suture 1 cm proximal from its distal extremity and puncture using a 22-G needle was made twice (through and through) for a 20-h study and once for a survival study. A control (scrambled peptide) or OP18, both with 80 nmol/kg body weight (BW), was injected intraperitoneally (i.p.) before the closure. Sham animals were subjected to a laparotomy without CLP. Following the surgery, 1 mL of saline was injected subcutaneously to avoid surgery-induced dehydration, and 0.05 mg/kg buprenorphine was injected subcutaneously as an analgesic; 20 h after the surgery, the blood and lungs were collected. In the 20-h model, antibiotics were not administered, whereas in the survival study, 0.5 mg/kg BW of Imipenem was injected subcutaneously.
Blood was collected, centrifuged at 1,000 × g for 10 min, and plasma or serum was separated. Plasma levels of eCIRP, HMGB1, and histone H3 were analyzed by ELISA kits according to the manufacturer’s instruction (eCIRP from American Research Products, Inc., Waltham, MA, USA, HMGB1 from Invitrogen, Thermo Fisher Scientific, and histone H3 from LS Bio, Shirley, MA, USA). Serum levels of IL-6 and TNF-α were analyzed by ELISA kits (IL-6 and TNF-α both from BD Biosciences, Franklin Lakes, NJ, USA) according to the manufacturer’s instruction. Serum levels of aspartate aminotransferase (AST), lactate dehydrogenase (LDH), blood urea nitrogen (BUN), and creatinine (Cre) were measured by specific colorimetric enzymatic assays (Pointe Scientific, Canton, MI). Absorbance was measured on a Synergy Neo2 (Agilent Technologies) according to the manufacturer’s instructions.
Figure 4 OP18 alleviates systemic inflammation and tissue injury in sepsis. Intraperitoneal injection of 80 nmol/kg scrambled peptide or 80 nmol/kg OP18 was performed on CLP mice before skin closure. Blood and lungs were collected 20 h after CLP. (A–C) Plasma levels of (A) eCIRP, (B) HMGB1, and (C) histone H3. (D–I) Serum levels of (D) IL-6, (E) TNF-α, (F) AST, (G) LDH, (H) BUN, and (I) Cre. Data are expressed as mean ± SEM (n = 7–9 samples/group) and were compared using one-way ANOVA followed by Tukey’s multiple comparison test. ^* p < 0.05 versus sham; ^# p < 0.05 versus scrambled peptide. Experiments were performed three times, and all data were used for analysis.

Molecule	cytotoxicity on macrophages (MTS) (RAW264.7 cells)	cytotoxicity on macrophages (LDH) [1]	IL-6 in sham mice (C57BL/6 mice (sham))	TNFα in sham mice (C57BL/6 mice (sham))	plasma HMGB1 level [2]	plasma eCIRP level [2]	plasma histone H3 level [2]	serum AST [2]	serum BUN [2]	serum Cre [2]	serum IL-6 [2]	serum LDH [2]	serum TNF-α [2]
CC[C@H](C)[C@H](NC(=O)[C@H](CC(N)=O)NC(=O)[C@H](CO)NC(=O)[C@H](CO)NC(=O)[C@H](CC(N)=O)NC(=O)[C@H](Cc1ccccc1)NC(=O)[C@H](CC(N)=O)NC(=O)CN)C(=O)N[C@@H](CCSC)C(=O)N[C@@H](CCCCN)C(=O)N[C@H](C(=O)N[C@@H](CS)C(=O)N[C@@H](CC(C)C)C(=O)N[C@@H](CCC(N)=O)C(=O)N[C@@H](CC(N)=O)C(=O)N[C@@H](CCCNC(=N)N)C(=O)NCC(=O)N[C@@H](CC(=O)O)C(=O)O)[C@@H](C)O [OP18]	did not observe any cytotoxicity	did not observe any cytotoxicity	No significant difference	No significant difference	–	–	–	–	–	–	–	–	–
NRKINMGSFTQCSNNLGD [scrambled peptide, scrambled control peptide for OP18 ([…])]	–	–	–	–	significantly elevated	significantly elevated	significantly elevated	significantly elevated	significantly elevated	significantly elevated	significantly elevated	significantly elevated	significantly elevated
